Laboratory results reported in patent US10294234B2, “HIV inhibitor compounds” (priority 2017, dated 2019).
Where two headings read alike, the source gives them in different places.

Key:
[1] = system: HIV-1 (IIIB) in MT-4 cells; experiment: MT-4 HIV assay; type: cell-based; conditions: Human immunodeficiency virus 1, MT4, 120 h
Summary of the method: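 Antiviral activity was read by Cell Titer Glo after a 5-day, 37 °C culture of MT-4 cells pre-infected with a 1:250 dilution of HIV-1 (IIIB). Compounds were tested as threefold dilution series in complete RPMI. Controls were no drug, mock infection and 5 uM AZT.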

[2] = Summary of the method: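 Depletion measured by LC/MS/MS at 2, 12, 25, 45 and 65 minutes after 1 uM compound was added to liver microsomes (0.5 mg/mL; dog, rat, human) with NADPH-regenerating cofactor, in duplicate. In vitro t1/2 converted to Clint.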
[3] = HIV-1 (IIIB), MT-4 cells, 5 days, Cell Titer Glo, read-out: EC50
[4] = human liver microsomes 0.5 mg/mL, 1 uM compound, NADPH
[5] = rat liver microsomes 0.5 mg/mL, 1 uM compound, NADPH

Row | SMILES | EC50 [1, 3] | Human Pred Cl. ([2]; human, microsomes) | Rat. Pred. Cl. ([2]; rat, microsomes) | EC50 [1] | Human Pred Cl. [2, 4] | Rat. Pred. Cl. [2, 5]
1 | COC(=O)N[C@H](C(=O)N[C@@H](Cc1ccc(C#Cc2ccc(N3CC4CCC(C3)N4C3COC3)nc2)cc1)[C@@H](O)CN(Cc1c(F)cc(-c2ccc(N3CC4CCC(C3)N4C3COC3)nc2)cc1F)NC(=O)[C@@H](NC(=O)OC)C(C)(C)C(F)(F)F)C(C)(C)C(F)(F)F [Example 147, Methyl ((5S,8S,9S,14S)-11-(2,6-difluoro-4-(6-(8-(oxetan-3-yl)-3,8-diazabicyclo[3.2.1]octan-3-yl)pyridin-3-yl)benzyl)-16,16,16-trifluoro-9-hydroxy-15,15-dimethyl-8-(4-((6-(8-(oxetan-3-yl)-3,8-diazabicyclo [3.2.1]octan-3-yl)pyridin-3-yl)ethynyl)benzyl)-3,6,13-trioxo-5-(1,1,1-trifluoro-2-methylpropan-2-yl)-2-oxa-4,7,11,12-tetraazahexadecan-14-yl)carbamate] | 6.79 nM | <0.11 L/H/kg |  |  |  | 
2 | COC(=O)N[C@H](C(=O)N[C@@H](Cc1ccc(C#Cc2cnc(N3CC4CCC(C3)N4C3COC3)cc2C)cc1)[C@@H](O)CN(Cc1c(F)cc(-c2cnn(C(F)F)c2)cc1F)NC(=O)[C@@H](NC(=O)OC)C(C)(C)C(F)(F)F)C(C)(C)C(F)(F)F [Example 154, Methyl ((5S,8S,9S,14S)-11-(4-(1-(difluoromethyl)-1H-pyrazol-4-yl)-2,6-difluorobenzyl)-16,16,16-trifluoro-9-hydroxy-15,15-dimethyl-8-(4-((4-methyl-6-(8-(oxetan-3-yl)-3,8-diazabicyclo[3.2.1]octan-3-yl)pyridin-3-yl)ethynyl)benzyl)-3,6,13-trioxo-5-(1,1,1-trifluoro-2-methylpropan-2-yl)-2-oxa-4,7,11,12-tetraazahexadecan-14-yl)carbamate] | 4.81 nM | <0.11 L/H/kg | <0.18 L/H/kg |  |  | 
3 | COC(=O)N[C@H](C(=O)N[C@@H](Cc1ccc(C#Cc2ccc(N3CC4CCC(C3)N4C3COC3)nc2)cc1)[C@@H](O)CN(Cc1ccc(-c2ccn(C(F)F)n2)cc1)NC(=O)[C@@H](NC(=O)OC)C(C)(C)C(F)(F)F)C(C)(C)C(F)(F)F [Example 158, Methyl ((5S,8S,9S,14S)-11-(4-(1-(difluoromethyl)-1H-pyrazol-3-yl)benzyl)-16,16,16-trifluoro-9-hydroxy-15,15-dimethyl-8-(4-((6-(8-(oxetan-3-yl)-3,8-diazabicyclo[3.2.1]octan-3-yl)pyridin-3-yl)ethynyl)benzyl)-3,6,13-trioxo-5-(1,1,1-trifluoro-2-methylpropan-2-yl)-2-oxa-4,7,11,12-tetraazahexadecan-14-yl)carbamate] | 4.37 nM | <0.11 L/H/kg | 0.22 L/H/kg |  |  | 
4 | COC(=O)N[C@H](C(=O)N[C@@H](Cc1ccc(C#Cc2cnc(N3CCN(C)C(=O)C3)nc2)cc1)[C@@H](O)CN(Cc1c(F)cc(-c2ccn(C(F)F)n2)cc1F)NC(=O)[C@@H](NC(=O)OC)C(C)(C)C(F)(F)F)C(C)(C)C(F)(F)F [Example 159, methyl ((5S,8S,9S,14S)-11-(4-(1-(difluoromethyl)-1H-pyrazol-3-yl)-2,6-difluorobenzyl)-16,16,16-trifluoro-9-hydroxy-15,15-dimethyl-8-(4-((2-(4-methyl-3-oxopiperazin-1-yl)pyrimidin-5-yl)ethynyl)benzyl)-3,6,13-trioxo-5-(1,1,1-trifluoro-2-methylpropan-2-yl)-2-oxa-4,7,11,12-tetraazahexadecan-14-yl)carbamate] |  |  |  | 3.83 nM | <0.11 L/H/kg | 
5 | COC(=O)N[C@H](C(=O)N[C@@H](Cc1ccc(C#Cc2ccc(N3CC4(C3)CN(C3COC3)C4)nc2)cc1)[C@@H](O)CN(Cc1c(F)cc(-c2ccn(C(F)F)n2)cc1F)NC(=O)[C@@H](NC(=O)OC)C(C)(C)C(F)(F)F)C(C)(C)C(F)(F)F [Example 163, Methyl ((5S,8S,9S,14S)-11-(4-(1-(difluoromethyl)-1H-pyrazol-3-yl)-2,6-difluorobenzyl)-16,16,16-trifluoro-9-hydroxy-15,15-dimethyl-8-(4-((6-(6-(oxetan-3-yl)-2,6-diazaspiro[3.3]heptan-2-yl)pyridin-3-yl)ethynyl)benzyl)-3,6,13-trioxo-5-(1,1,1-trifluoro-2-methylpropan-2-yl)-2-oxa-4,7,11,12-tetraazahexadecan-14-yl)carbamate] |  |  |  | 2.32 nM | <0.11 L/H/kg | 
6 | COC(=O)N[C@H](C(=O)N[C@@H](Cc1ccc(C#Cc2ccc(N3C[C@@H]4CN(C5COC5)C[C@@H]4C3)nc2)cc1)[C@@H](O)CN(Cc1c(F)cc(-c2ccn(C(F)F)n2)cc1F)NC(=O)[C@@H](NC(=O)OC)C(C)(C)C(F)(F)F)C(C)(C)C(F)(F)F [Example 165, Methyl ((5S,8S,9S,14S)-11-(4-(1-(difluoromethyl)-1H-pyrazol-3-yl)-2,6-difluorobenzyl)-16,16,16-trifluoro-9-hydroxy-15,15-dimethyl-8-(4-((6-((3aR,6aS)-5-(oxetan-3-yl)hexahydropyrrolo[3,4-c]pyrrol-2(1H)-yl)pyridin-3-yl)ethynyl)benzyl)-3,6,13-trioxo-5-(1,1,1-trifluoro-2-methylpropan-2-yl)-2-oxa-4,7,11,12-tetraazahexadecan-14-yl)carbamate] | 4.05 nM |  |  |  | 0.56 L/H/kg | 3.2 L/H/kg
7 | CCN1C2CCC1CN(c1ccc(C#Cc3ccc(C[C@H](NC(=O)[C@@H](NC(=O)OC)C(C)(C)C(F)(F)F)[C@@H](O)CN(Cc4c(F)cc(-c5cnn(C(F)F)c5)cc4F)NC(=O)[C@@H](NC(=O)OC)C(C)(C)C(F)(F)F)cc3)cn1)C2 [Example 167, Methyl ((5S,8S,9S,14S)-11-(4-(1-(difluoromethyl)-1H-pyrazol-4-yl)-2,6-difluorobenzyl)-8-(4-((6-(8-ethyl-3,8-diazabicyclo[3.2.1]octan-3-yl)pyridin-3-yl)ethynyl)benzyl)-16,16,16-trifluoro-9-hydroxy-15,15-dimethyl-3,6,13-trioxo-5-(1,1,1-trifluoro-2-methylpropan-2-yl)-2-oxa-4,7,11,12-tetraazahexadecan-14-yl)carbamate] | 4.97 nM | <0.11 L/H/kg |  |  |  | 
8 | COC(=O)N[C@H](C(=O)N[C@@H](Cc1ccc(C#Cc2ccc(N3CC4CCC(C3)N4C)nc2)cc1)[C@@H](O)CN(Cc1c(F)cc(-c2cnn(C(F)F)c2)cc1F)NC(=O)[C@@H](NC(=O)OC)C(C)(C)C(F)(F)F)C(C)(C)C(F)(F)F [Example 168, Methyl ((5S,8S,9S,14S)-11-(4-(1-(difluoromethyl)-1H-pyrazol-4-yl)-2,6-difluorobenzyl)-16,16,16-trifluoro-9-hydroxy-15,15-dimethyl-8-(4-((6-(8-methyl-3,8-diazabicyclo[3.2.1]octan-3-yl)pyridin-3-yl)ethynyl)benzyl)-3,6,13-trioxo-5-(1,1,1-trifluoro-2-methylpropan-2-yl)-2-oxa-4,7,11,12-tetraazahexadecan-14-yl)carbamate] | 5.48 nM | 0.19 L/H/kg | 2.42 L/H/kg |  |  | 
9 | COC(=O)N[C@H](C(=O)N[C@@H](Cc1ccc(C#Cc2ccc(N3C[C@@H]4C[C@H]3CN4C3COC3)nc2)cc1)[C@@H](O)CN(Cc1c(F)cc(-c2ccn(C(F)F)n2)cc1F)NC(=O)[C@@H](NC(=O)OC)C(C)(C)C(F)(F)F)C(C)(C)C(F)(F)F [Example 174, Methyl ((5S,8S,9S,14S)-11-(4-(1-(difluoromethyl)-1H-pyrazol-3-yl)-2,6-difluorobenzyl)-16,16,16-trifluoro-9-hydroxy-15,15-dimethyl-8-(4-((6-((1S,4S)-5-(oxetan-3-yl)-2,5-diazabicyclo[2.2.1]heptan-2-yl)pyridin-3-yl)ethynyl)benzyl)-3,6,13-trioxo-5-(1,1,1-trifluoro-2-methylpropan-2-yl)-2-oxa-4,7,11,12-tetraazahexadecan-14-yl)carbamate] | 2.33 nM |  |  |  | 0.18 L/H/kg | 0.69 L/H/kg
10 | COC(=O)N[C@H](C(=O)N[C@@H](Cc1ccc(C#Cc2ccc(N3CC4CC(C3)N4C3COC3)nc2)cc1)[C@@H](O)CN(Cc1c(F)cc(-c2ccccn2)cc1F)NC(=O)[C@@H](NC(=O)OC)C(C)(C)C(F)(F)F)C(C)(C)C(F)(F)F [Example 175, Methyl ((5S,8S,9S,14S)-11-(2,6-difluoro-4-(pyridin-2-yl)benzyl)-16,16,16-trifluoro-9-hydroxy-15,15-dimethyl-8-(4-((6-(6-(oxetan-3-yl)-3,6-diazabicyclo[3.1.1]heptan-3-yl)pyridin-3-yl)ethynyl)benzyl)-3,6,13-trioxo-5-(1,1,1-trifluoro-2-methylpropan-2-yl)-2-oxa-4,7,11,12-tetraazahexadecan-14-yl)carbamate] | 2.17 nM | 0.67 L/H/kg | 0.7 L/H/kg |  |  | 
